According to publication PMC9262584 (2022):

Assays:
[1] = system: Cd1^88 C87A (RNA, riboswitch) GGAAACUAAAUAGGCAAAUCUAGAGAAAUCUAGUGACGCAAAGCUAUAGGGACUAAGGUUUAUAUACAUAAACUAUGUCAGCCAGUUGAC; assay: 1H NMR reporter peaks; settings: 110 mM NaCl, MgCl2 at 40 equiv. over RNA; 50 mM Bis-Tris, 5-10% D2O
[2] = system: Cd1^88 C81A (RNA, riboswitch) GGAAACUAAAUAGGCAAAUCUAGAGAAAUCUAGUGACGCAAAGCUAUAGGGACUAAGGUUUAUAUACAUAAACUAUGUCAGCAAGUUGCC; assay: 1H NMR reporter peaks; settings: 110 mM NaCl, MgCl2 at 40 equiv. over RNA; 50 mM Bis-Tris, 5-10% D2O
[3] = system: Cd1^147 (RNA, riboswitch) GGAAACUAAAUAGGCAAAUCUAGAGAAAUCUAGUGACGCAAAGCUAUAGGGACUAAGGUUUAUAUACAUAAACUAUGUCAGCCAGUUGCCAAAAAGAGUCCUAGGUGUAUUGUAUACCUAAGAAAAGUCUAUAAUGACUGCCUUUUUGG; assay: 2D 1H/15N correlation NMR; settings: 110 mM NaCl, MgCl2 at 40 equiv. over RNA; 50 mM Bis-Tris, 5-10% D2O
[4] = system: Cd1^146 (RNA, riboswitch) GGAAACUAAAUAGGCAAAUCUAGAGAAAUCUAGUGACGCAAAGCUAUAGGGACUAAGGUUUAUAUACAUAAACUAUGUCAGCCAGUUGCCAAAAAGAGUCCUAGGUGUAUUGUAUACCUAAGAAAAGUCUAUAAUGACUGCCUUUUUG; assay: ITC; settings: 120 mM NaCl, 8 mM MgCl2 (RNA wash buffer); 50 mM Bis-Tris pH 6.1; individual ITC conditions in SI Figures S11/S12
[5] = system: Cd1^82 (RNA, riboswitch) GGAAACUAAAUAGGCAAAUCUAGAGAAAUCUAGUGACGCAAAGCUAUAGGGACUAAGGUUUAUAUACAUAAACUAUGUCAGCCA; assay: 1H NMR reporter peaks; settings: 110 mM NaCl, MgCl2 at 40 equiv. over RNA; 50 mM Bis-Tris, 5-10% D2O
[6] = system: Cd1^149 (RNA, riboswitch) GGAAACUAAAUAGGCAAAUCUAGAGAAAUCUAGUGACGCAAAGCUAUAGGGACUAAGGUUUAUAUACAUAAACUAUGUCAGCCAGUUGCCAAAAAGAGUCCUAGGUGUAUUGUAUACCUAAGAAAAGUCUAUAAUGACUGCCUUUUUGGCA; assay: 2D 1H/15N correlation NMR; settings: 110 mM NaCl, MgCl2 at 40 equiv. over RNA; 50 mM Bis-Tris, 5-10% D2O
[7] = system: Cd1^88 G11A (RNA, riboswitch) GGAAACUAAAUAAGCAAAUCUAGAGAAAUCUAGUGACGCAAAGCUAUAGGGACUAAGGUUUAUAUACAUAAACUAUGUCAGCCAGUUGCC; assay: 1H NMR reporter peaks; settings: 110 mM NaCl, MgCl2 at 40 equiv. over RNA; 50 mM Bis-Tris, 5-10% D2O
[8] = system: Cd1^87 (RNA, riboswitch) GGAAACUAAAUAGGCAAAUCUAGAGAAAUCUAGUGACGCAAAGCUAUAGGGACUAAGGUUUAUAUACAUAAACUAUGUCAGCCAGUUGC; assay: ITC; settings: 120 mM NaCl, 8 mM MgCl2 (RNA wash buffer); 50 mM Bis-Tris pH 6.1; individual ITC conditions in SI Figures S11/S12
[9] = system: Cd1^86 (RNA, riboswitch) GGAAACUAAAUAGGCAAAUCUAGAGAAAUCUAGUGACGCAAAGCUAUAGGGACUAAGGUUUAUAUACAUAAACUAUGUCAGCCAGUUG; assay: ITC; settings: 120 mM NaCl, 8 mM MgCl2 (RNA wash buffer); 50 mM Bis-Tris pH 6.1; individual ITC conditions in SI Figures S11/S12
[10] = system: Cd1^88 (RNA, riboswitch) GGAAACUAAAUAGGCAAAUCUAGAGAAAUCUAGUGACGCAAAGCUAUAGGGACUAAGGUUUAUAUACAUAAACUAUGUCAGCCAGUUGCC; assay: ITC; settings: 120 mM NaCl, 8 mM MgCl2 (RNA wash buffer); 50 mM Bis-Tris pH 6.1; individual ITC conditions in SI Figures S11/S12
[11] = system: Cd1^81 (RNA, riboswitch) GGAAACUAAAUAGGCAAAUCUAGAGAAAUCUAGUGACGCAAAGCUAUAGGGACUAAGGUUUAUAUACAUAAACUAUGUCAGCC; assay: 1H NMR reporter peaks; settings: 110 mM NaCl, MgCl2 at 40 equiv. over RNA; 50 mM Bis-Tris, 5-10% D2O
[12] = system: Cd1^80 (RNA, riboswitch) GGAAACUAAAUAGGCAAAUCUAGAGAAAUCUAGUGACGCAAAGCUAUAGGGACUAAGGUUUAUAUACAUAAACUAUGUCAGC; assay: 1H NMR reporter peaks; settings: 110 mM NaCl, MgCl2 at 40 equiv. over RNA; 50 mM Bis-Tris, 5-10% D2O
[13] = system: Cd1^88 A24-26U (RNA, riboswitch) GGAAACUAAAUAGGCAAAUCUAGAGUUUUCUAGUGACGCAAAGCUAUAGGGACUAAGGUUUAUAUACAUAAACUAUGUCAGCCAGUUGCC; assay: 1H NMR reporter peaks; settings: 110 mM NaCl, MgCl2 at 40 equiv. over RNA; 50 mM Bis-Tris, 5-10% D2O
[14] = system: Cd1^148 (RNA, riboswitch) GGAAACUAAAUAGGCAAAUCUAGAGAAAUCUAGUGACGCAAAGCUAUAGGGACUAAGGUUUAUAUACAUAAACUAUGUCAGCCAGUUGCCAAAAAGAGUCCUAGGUGUAUUGUAUACCUAAGAAAAGUCUAUAAUGACUGCCUUUUUGGC; assay: 2D 1H/15N correlation NMR; settings: 110 mM NaCl, MgCl2 at 40 equiv. over RNA; 50 mM Bis-Tris, 5-10% D2O
[15] = system: Cd1^83 (RNA, riboswitch) GGAAACUAAAUAGGCAAAUCUAGAGAAAUCUAGUGACGCAAAGCUAUAGGGACUAAGGUUUAUAUACAUAAACUAUGUCAGCCAG; assay: ITC; settings: 120 mM NaCl, 8 mM MgCl2 (RNA wash buffer); 50 mM Bis-Tris pH 6.1; individual ITC conditions in SI Figures S11/S12
[16] = system: Cd1^88 C88A (RNA, riboswitch) GGAAACUAAAUAGGCAAAUCUAGAGAAAUCUAGUGACGCAAAGCUAUAGGGACUAAGGUUUAUAUACAUAAACUAUGUCAGCCAGUUGCA; assay: 1H NMR reporter peaks; settings: 110 mM NaCl, MgCl2 at 40 equiv. over RNA; 50 mM Bis-Tris, 5-10% D2O
[17] = system: Cd1^135 (RNA, riboswitch) GGAAACUAAAUAGGCAAAUCUAGAGAAAUCUAGUGACGCAAAGCUAUAGGGACUAAGGUUUAUAUACAUAAACUAUGUCAGCCAGUUGCCAAAAAGAGUCCUAGGUGUAUUGUAUACCUAAGAAAAGUCUAUAAUGA; assay: ITC; settings: 120 mM NaCl, 8 mM MgCl2 (RNA wash buffer); 50 mM Bis-Tris pH 6.1; individual ITC conditions in SI Figures S11/S12
[18] = system: Cd1^88 G11C (RNA, riboswitch) GGAAACUAAAUACGCAAAUCUAGAGAAAUCUAGUGACGCAAAGCUAUAGGGACUAAGGUUUAUAUACAUAAACUAUGUCAGCCAGUUGCC; assay: 1H NMR reporter peaks; settings: 110 mM NaCl, MgCl2 at 40 equiv. over RNA; 50 mM Bis-Tris, 5-10% D2O

SMILES: Nc1nc2c(ncn2[C@@H]2O[C@@H]3COP(=O)(O)O[C@H]4[C@@H](O)[C@H](n5cnc6c(=O)[nH]c(N)nc65)O[C@@H]4COP(=O)(O)O[C@H]3[C@H]2O)c(=O)[nH]1
- binding [1]: weak
- binding [2]: no
- binding [3]: yes
- KD [4]: 7000 ± 2000 nM
- binding [5]: no
- binding [6]: no
- binding [7]: yes
- KD [8]: 1900 ± 100 nM
- KD [9]: 35000 ± 10000 nM
- KD [10]: 250 ± 40 nM
- binding [11]: no
- binding [12]: no
- binding [13]: no
- binding [14]: no
- KD [15]: > >100 μM
- binding [16]: yes
- KD [17]: 600 ± 30 nM
- binding [18]: yes
